Data published in US20050124618A1, “Methods of modulating angiogenesis and cancer cell proliferation” (priority 2003, published 2005).
“Also recorded” adds a separate entry of the source.

What was measured:
[1] = system: extensor digitorum longus (EDL) and tibialis anterior (TA) muscles; assay: Vessel density of EDL and TA muscles after 7 days of electrical stimulation; format: in vivo, rat
Protocol: (§1) Experimental protocols and tissue preparation: After a 24-h recovery period, the implanted stimulator was activated by momentary closure of the magnetic reed switch using a small hand-held magnet. […] Contractions of the extensor digitorum longus (EDL) and tibialis anterior (TA) muscles were automatically initiated at 9 AM each day and sustained for 8 h/day over a consecutive 7-day period. At the end of the stimulation period, the animals were euthanized by an overdose of pentobarbital sodium (100 mg/kg ip), and the EDL and TA muscles were harvested for analysis as previously described (Greene A S et al., Hypertension 15: 779-783, 1990; and Parmentier J H et al., Hypertension 37: 623-629, 2001).
Tissue harvest and morphological analysis of vessel density: The stimulated and contralateral muscles were removed, weighed, and rinsed in physiological salt solution. A 300-mg sample was taken from the rostral portion of the TA muscle and frozen in liquid nitrogen for Western blot (100 mg) and HPLC (200 mg) analysis for measurement of VEGF protein expression and 20-HETE formation, respectively. The remaining TA and EDL muscles were lightly fixed in a 0.25% formalin solution overnight. The muscles were sectioned via a manual microtome to a thickness of about 100 μm by securing the tendons and slicing parallel to the longitudinal orientation of the muscle fibers. From every animal, two slices of each EDL muscle and three slices of each TA muscle were made. The slices were than immersed for 2 h in a solution of 25 μg/ml rhodamine-labeled Griffonia simplicifolia I (GS-I) lectin (Sigma; St. Louis, Mo. (Greene A S et al., Hypertension 15: 779-783, 1990)). Immediately after this 2-h exposure to GS-I lectin, the muscles were rinsed in physiological solution. The rinsing procedure was repeated after 15 and 30 min, and the muscles were rinsed in physiological saline solution for 12 h (overnight, at 4° C.). On the next day, the slices were mounted on microscope slides with a water-soluble mounting medium consisting of toluene and acrylic resin (SP ACCU-MOUNT 280, Baxter Scientific).
The labeled sections were visualized using a video fluorescent microscope system (Olympus ULWD CD Plan, ×20 objective, 1.6 cm working distance and 0.4 numerical aperture) with epi-illumination, as previously described (Parmentier J H et al., Hypertension 37: 623-629, 2001). In the present study, 10-15 and 20-25 representative fields were selected for study from each EDL and TA muscle slice, respectively. Each field was converted to a digitized image (DT2801 Data Translation; Marlboro, Mass.) and stored as an 8-bit/pixel image file with a resolution of 512×512 pixels. Morphometric analysis of the scanned histochemical sections was done as previously described (Parmentier J H et al., Hypertension 37: 623-629, 2001).
Data analysis and statistics: For each muscle, the vessel counts of all the selected fields (10-15 scans×2 slices for each EDL muscle; 20-25 scans×3 slices for each TA muscle) were averaged to a single vessel density. Vessel density was expressed in terms of the mean number of vessel-grid intersections per microscope field (0.224 mm^2). For each experimental group, the measured vessel density and 20-HETE formation of the stimulated muscle was compared with its unstimulated counterpart as well as with age-matched controls. All values are presented as means±SE. The significance of differences in values measured in the same animal was evaluated using a two-factor ANOVA (drug×stimulation) with repeated measures on one factor (stimulation). Significant differences were further investigated using a post hoc test (Tukey's).

20-HETE [2] = conditions: cited from earlier work
20-HETE [3] = assay: 20-HETE formation in electrically stimulated skeletal (TA) muscle of rats; format: in vivo, rat; conditions: 7 days of electrical stimulation; chronic treatment
Protocol: as §1
The rats were divided in four groups. […] This dose was chosen based on our previous results (Kehl F et al., Am J Physiol Heart Circ Physiol 282: H1556-H1565, 2002).
To determine the contribution of VEGF to the angiogenesis induced by electrical stimulation, six rats in group 3 were treated with 3 mg/kg ip injections of a monoclonal VEGF-neutralizing antibody (Texas Biotechnology; Houston, Tex.) during the period of electrical stimulation. The protocol for administration of VEGF-neutralizing antibody was modified from Zheng W et al. (Circ Res 85: 192-198, 1999), and this dose was based on our previous results (Amaral S L et al., Microcirculation 8: 57-67, 2001). After the stimulation period was started, the rats received intraperitoneal injections on days 3, 5, and 7 (0.6 mg/100 g).
Muscle preparations for measurement of 20-HETE: The 100-200 mg of frozen TA muscle were homogenized in a solution containing 1 ml of acidified water and 50 μl of an internal standard, WIT-002, which was synthesized and kindly provided by Taisho Pharmaceutical. Ethyl acetate (3 ml, Fisher Scientific; Pittsburgh, Pa.) was added to the mixture and gently vortexed. The homogenized tissues were then centrifuged at 3,000 revolutions/min for 2 min. With the use of a glass Pasteur pipet, the top layer was removed and transferred to a sterile glass vial, and the samples were dried under nitrogen and stored at −80° C.
Labeling of samples and fluorescent detection of 20-HETE: Detection of 20-HETE was performed as previously described (Ma Y H et al., Am J Physiol Regul Integr Comp Physiol 267: R579-R589, 1994). Samples, which were extracted and dried under argon, were resuspended in 20 μl of acetonitrile containing 36.4 mM 2-(2,3-napthalimino)ethyl trifluoromethanesulfonate, and N,N-diisopropylethylamine (10 μl) was added as a catalyst. The sample was reacted for 30 min at room temperature, dried under argon, resuspended in 1 ml of 40% acetonitrile-water, and applied to a Sep-Pak Vac column. The column was washed with 6 ml of 50% acetonitrile-water solution to remove unreacted dye, eluted with 500 μl of ethyl acetate, dried under argon, and resuspended in 100 μl of the HPLC mobile phase [methanol-water-acetic acid, 82:18:0.1 (vol/vol)]. A 25-μl aliquot of the derivatized sample was separated on a 4.6×250-mm Symmetry C18 reverse-phase HPLC column (Waters) isocratically at a rate of 1.3 ml/min using methanol-water-acetic acid (82:18:0.1 (vol/vol)) as the mobile phase. Fluorescence intensity monitored using an in-line fluorescence detector (model number L-7480, Hitachi; Naperville, Ill.) at medium gain sensitivity. The amount of 20-HETE in the sample was determined by comparing the area of the 20-HETE peak with that of the internal standard (WIT-002).

VEGF = assay: Western blot of VEGF protein expression in TA muscle; format: in vivo, rat
Protocol: Western blot analysis to detect the presence of VEGF protein: The 100-mg TA muscle specimens were homogenized, and the protein was suspended in potassium buffer (10 mM). Five micrograms of protein (as determined by a protein assay kit, Bio-Rad; Hercules, Calif.) from the TA and a tumor cell line known to express VEGF at high levels (C6, American Type Culture Collection, 107-CCL) were separated on a 12% denaturing polyacrylamide gel. The gels were transferred to a nitrocellulose membrane, which was blocked overnight in 5% nonfat dry milk diluted in Tris-buffered saline (50 mM Tris and 750 mM NaCl, pH 8) with 0.08% Tween 20 (Bio-Rad). The blots were then incubated with a […] antibody to a peptide derived from the human VEGF sequence (1:1,000 dilution, clone G143-850, Pharmingen) for 2 h at room temperature. Washed blots were then incubated with goat anti-mouse secondary antibody at a dilution of 1:1,000 for 1 h at room temperature and then subjected to a SuperSignal West Dura chemiluminescence substrate (Pierce; Rockford, Ill.) detection system. Membranes were exposed to X-ray film (Fuji Medical; Stamford, Conn.) for 15 to 30 s and developed using a Kodak M35 X-Omat processor. For the quantitative VEGF analysis, film was always exposed for a period of time that ensured that all signals were within the linear range of the detection of the film. The VEGF band intensity was quantified using a morphometry imaging system (Metamorph, Universal Imaging; West Chester, Pa.), and values are expressed as a percentage of the C6 tumor cell standard.

[4] = chronic treatment, 7 days electrical stimulation

Nn1nnc2ccccc21 [ABT, 1-aminobenzotriazole]
effect on the increase in vessel density (angiogenesis) induced by electrical stimulation ([1]; 7 days, HET0016 2 mg kg−1 day−1, ABT 50 mg kg−1 day−1): blocked; also recorded: attenuated
vessel density, EDL, unstimulated side ([1]; chronic treatment, 7 days): 111±7.4 number of vessel intersections
vessel density, TA, unstimulated side ([1]; chronic treatment, 7 days): 99.7±4.72 number of vessel intersections
vessel density, EDL, stimulated side [1, 4]: 121±4.35 number of vessel intersections
vessel density, TA, stimulated side [1, 4]: 119.5±4.51 number of vessel intersections
ability to reduce 20-HETE levels in vivo (20-HETE [2]): reduce 20-HETE levels in vivo
effect on the increase of 20-HETE formation induced by electrical stimulation (20-HETE [3]): blocked
effect on increases in VEGF protein expression induced by electrical stimulation (VEGF; 7 days stimulation): did not block
effect on baseline VEGF expression (VEGF; 7 days treatment): Neither HET0016 nor ABT had any effect
